# Measured values: US20070053934A1, “Polyvalent multimeric composition containing active polypeptides, pharmaceutical compositions and methods of using the same” (priority 2005, published 2007)
# Where a SMILES comes first, the peptide text is derived from it. Bridges are numbered along the chain shown (N, C = ends). Roman numbers before positions name the chains, in order. Where no end group is shown, it is not given here. Side-chain parts run from the residue outwards. [ ]: non-standard residue; d: D form. βAla = NCCC(=O)O
# Legend:
# fresh sheep erythrocytes [1] = assay: Hemolysis assay HD50 (Examples 1B and 2); type: cell-based; settings: red cells of sheep
# Procedure: Stock solutions of samples were prepared by the same procedure as in antibacterial assays. Hemolytic activity of monomeric peptides and multivalent ones were assessed on fresh sheep erythrocytes (Fitzgerald, Inc., MA) in 35 mM PBS buffer, 150 mM NaCl, pH 7.0. Peptide concentrations corresponding to 50% hemolysis were used as hemolytic dose (HD50) determined from dose-response curve (National Committee for Clinical Laboratory Standards. 2004, Methods for dilution antimicrobial susceptibility tests for bacteria that grow aerobically; sixth edition, approved standard M100-S14. National Committee for Clinical Laboratory Standards. Wayne, Pa.). Aliquots of cell suspension were mixed in eppendorf tubes with varying volumes of stocks and buffer for a total volume of 1 mL. Solutions containing same volume of DMSO without samples were used as control. These tubes were incubated at 37° C. for 1 hr, and then spun down at 3,000 rpm for 5 mins. The resulting supernatant was diluted by a factor of 40 in distilled water. The absorbances of the dilutions at 540 nm were measured in the Genesys 5 Spectrophotometer (Thermo Spectronic, Inc., NY). Zero hemolysis and 100% hemolysis controls were obtained by incubating the cells with buffer and 20% Tween, respectively. Hemolytic index (HI) was defined as HI=HD50/IC50. […]
# E. Coli (D31) [2] = tested on: E. Coli (D31)
# S Aureus (ATCC BAA-44) = settings: mean of three experiments
# [3] = tested on: B. anthracis (Sterne 34F2); settings: mean of three experiments
# fresh sheep erythrocytes [4] = type: cell-based; settings: pH 7.2
# Procedure: Hemolytic activity of model peptides was assessed on fresh sheep erythrocytes (Fitzgerald Inc., Concord, Mass.). Peptide concentrations yielding 50% hemolysis were used as hemolytic dose (HD50) determined from dose-response curves (Oren, Z., and Y. Shai. 1997. Selective lysis of bacteria but not mammalian cells by diastereomers of melittin: Structure-function study. Biochem. 36:1826-1835). […] The resulting supernatant was diluted by a factor of 40 in distilled water. The absorbances of the supernatant at λ=540 nm (OD540) were measured in the UV Spectrophotometer. Zero hemolysis and 100% hemolysis controls were obtained by incubating the cells with buffer and 1% Triton-X, respectively. Hemolytic index (HI) was defined as HI=HD50/IC50.
# E. Coli (D31) [5] = settings: read-out: IC50 E. coli; 50% inhibition of growth, 18 h; mean of three experiments
# S. aureus (ATCC BAA-44) = settings: ATCC BAA-44, 18 h
# HIV = assay: Inhibition of HIV infectivity by gp340-derived peptides; type: cell-based; settings: peptide concentrations up to 10 ug/ml
# [6] = tested on: HIV-1 attachment to and infection of H9 cells; assay: Viral attachment assay; type: cell-based; settings: for cell-associated virus (HIV-1 attachment to target cells): H9 cells, cell-associated p24 after virus exposure
# Procedure: FIG. 8. Effect of gp-340 or N-SRCR on HIV-1 attachment and infection of cells. The H9 cells were treated with increasing concentrations of gp-340 (A and B) or N-SRCR (C) before and during HIV-1 exposure. After 4 hours, the cells were extensively washed of virus and either treated with or without trypsin at room temperature for 10 min and lysed for total cell-associated p24 measurement or re-fed with fresh medium to continue culture for 4 days to determine infection (data only for gp-340 shown). The values were average of triplicate wells and bars represent standard errors.
# 0.5×10^6 H9 cells were pre-incubated with purified gp-340 ranging from 2 to 10 μg/ml, or N-SRCR at 0.5 μg/ml at 37° C. for 60 min before viral exposure at 50 ng/ml p24 at 37° C. for 3 hours. The exposed cells were washed repeatedly to remove unbound virus, either lysed for cell-associated viral p24 measurement, treated with trypsin for 5 min before lysis, or refed with culture medium and maintained in culture for an additional 4 days. Culture medium was collected, cleared of cellular debris, lysed and viral p24 was measured.
# [7] = tested on: HIV-1 gp120MN V3 peptide P6283; settings: Ca++-dependent, ELISA
# HIV-1 NL4-3 = assay: HIV inhibition assay, p24 readout; settings: H9 cells, p24 in culture supernatant
# HIV-1 BaL = assay: HIV inhibition assay, p24 readout; settings: IL-2 stimulated human PBMCs, p24 in culture supernatant
# HIV-1 IIIB = assay: HIV inhibition assay, p24 readout
# gp120 = gp120 (Human immunodeficiency virus type 1 group M subtype B, UniProt P03375); settings: read-out: Kd of gp340 binding to gp120; earlier studies of the applicants
# [8] = H9 cells, p24 in culture supernatant
compound,measurement,setting,value
CC(=O)N[C@@H](Cc1c[nH]c2ccccc12)C(=O)N[C@@H](CCCNC(=N)N)C(=O)N[C@@H](Cc1c[nH]c2ccccc12)C(=O)N[C@@H](CCCNC(=N)N)C(=O)NCCCC[C@H](NC(=O)[C@H](CCCNC(=N)N)NC(=O)[C@H](Cc1c[nH]c2ccccc12)NC(=O)[C@H](CCCNC(=N)N)NC(=O)[C@H](Cc1c[nH]c2ccccc12)NC(C)=O)C(=O)NCCCC[C@H](NC(=O)[C@H](CCCCNC(=O)[C@H](CCCNC(=N)N)NC(=O)[C@H](Cc1c[nH]c2ccccc12)NC(=O)[C@H](CCCNC(=N)N)NC(=O)[C@H](Cc1c[nH]c2ccccc12)NC(C)=O)NC(=O)[C@H](CCCNC(=N)N)NC(=O)[C@H](Cc1c[nH]c2ccccc12)NC(=O)[C@H](CCCNC(=N)N)NC(=O)[C@H](Cc1c[nH]c2ccccc12)NC(C)=O)C(=O)NCCC(N)=O [(Ac—WRWR)4-lys2-Lys-Beta-Ala-NH2] (I: Ac-WRWRK([Arg-Trp-Arg-Trp-Ac])K[βAla]-NH2 / II: Ac-WRWRK([Arg-Trp-Arg-Trp-Ac]); amide I:6-II:C),Hemolytic activity HD50,fresh sheep erythrocytes [1],137 µg/mL
same,Antimicrobial activity IC50,E. Coli (D31) [2],9.5 µg/mL
same,Antimicrobial activity IC50,S Aureus (ATCC BAA-44),12.5 µg/mL
same,Antimicrobial activity IC50,[3],15.5 µg/mL
N=C(N)NCCC[C@H](NC(=O)[C@H](Cc1c[nH]c2ccccc12)NC(=O)[C@@H](N)CCCNC(=N)N)C(=O)N[C@@H](Cc1c[nH]c2ccccc12)C(N)=O [(RW)2—NH2] (H-RWRW-NH2),HD50 Red blood cell,fresh sheep erythrocytes [4],3700 µM
same,IC50,E. Coli (D31) [5],730 µM
same,IC50,S. aureus (ATCC BAA-44),210 µM
N=C(N)NCCC[C@H](NC(=O)[C@H](Cc1c[nH]c2ccccc12)NC(=O)[C@H](CCCNC(=N)N)NC(=O)[C@H](Cc1c[nH]c2ccccc12)NC(=O)[C@H](CCCNC(=N)N)NC(=O)[C@H](Cc1c[nH]c2ccccc12)NC(=O)[C@H](CCCNC(=N)N)NC(=O)[C@H](Cc1c[nH]c2ccccc12)NC(=O)[C@@H](N)CCCNC(=N)N)C(=O)N[C@@H](Cc1c[nH]c2ccccc12)C(N)=O [(RW)5—NH2],HD50 Red blood cell,fresh sheep erythrocytes [4],76 µM
same,IC50,E. Coli (D31) [5],6.2 µM
same,IC50,S. aureus (ATCC BAA-44),3.6 µM
N=C(N)NCCC[C@H](N)C(=O)N[C@@H](Cc1c[nH]c2ccccc12)C(N)=O [RW—NH2] (H-Arg-Trp-NH2),HD50 Red blood cell,fresh sheep erythrocytes [4],8900 µM
same,IC50,E. Coli (D31) [5],4300 µM
same,IC50,S. aureus (ATCC BAA-44),2100 µM
GRVEYLXBGSW (GRVEVLYRGSW) [11 mer],inhibition of HIV infectivity (anti-HIV activity),HIV,"low, but measurable anti-HIV activity"
"N-SRCR: recombinant N-terminal gp340 fragment: first SRCR domain and half of first SID, with His-6 and HSV gD tags, 35 kDa",cell-associated virus (HIV-1 attachment to target cells),[6],did not effect viral attachment
same,concentration not toxic to H9 cells,H9 cells,up to 10 μg/ml
same,binding to immobilized gp120,"HIV-1 gp120; gp120 captured with antibody D7324, ELISA",shown to bind immobilized gp120
same,binding to gp120 upon sCD4 treatment of gp120,"HIV-1 gp120; sCD4 pre-binding, detected by Ab-1527",significantly increased
same,binding to the peptide P6283,[7],comparable to binding of gp-340
same,estimated ID90 for NL4-3,HIV-1 NL4-3,1.5 µg/mL
same,estimated ID90 for BaL,HIV-1 BaL,1.1 µg/mL
same,ID75 for IIIB,HIV-1 IIIB; [8],2 µg/mL
same,ID90 for IIIB,HIV-1 IIIB; [8],not achieved
QGRVEVLYRGSWGEVC [16 mer],inhibition of HIV infectivity (anti-HIV activity),HIV,only modest inhibition of HIV infectivity
RWRWRW-NH2 [(RW)3—NH2],HD50 Red blood cell,fresh sheep erythrocytes [4],210 µM
same,IC50,E. Coli (D31) [5],16 µM
same,IC50,S. aureus (ATCC BAA-44),8 µM
RWRWRWRW-NH2 [(RW)4—NH2],HD50 Red blood cell,fresh sheep erythrocytes [4],100 µM
same,IC50,E. Coli (D31) [5],9.6 µM
same,IC50,S. aureus (ATCC BAA-44),5.1 µM
gp340: 340 kDa salivary agglutinin glycoprotein of the SRCR superfamily; recombinant or purified from saliva,viral replication in the treated cells,"[6]; H9 cells cultured 4 days after exposure, p24",significantly inhibited
same,cell-associated virus (HIV-1 attachment to target cells),[6],not affected
same,Kd,gp120,0.0058 µM
same,blocking HIV-1 infection by expressed full length gp340,"HIV-1 IIIB; culture supernatant of transfected 293 cells, compared with SAG from saliva",as active in blocking HIV-1 infection as SAG purified from human saliva
